As a reminder, the IC50 is the midpoint of a concentration-inhibition curve.

Structures can show the parent of a compound that is named as a salt.

This assay has as its target T1, estrogen receptor (Homo sapiens, UniProt P03372).
T1 construct: since the MCF-7 cells express estrogen receptors; endogenous in cells; host or cells: MCF-7 human breast carcinoma cells infected with adenovirus 5-ERE-tk-luciferase (reporter only)
T1 sequence (P03372 1-595): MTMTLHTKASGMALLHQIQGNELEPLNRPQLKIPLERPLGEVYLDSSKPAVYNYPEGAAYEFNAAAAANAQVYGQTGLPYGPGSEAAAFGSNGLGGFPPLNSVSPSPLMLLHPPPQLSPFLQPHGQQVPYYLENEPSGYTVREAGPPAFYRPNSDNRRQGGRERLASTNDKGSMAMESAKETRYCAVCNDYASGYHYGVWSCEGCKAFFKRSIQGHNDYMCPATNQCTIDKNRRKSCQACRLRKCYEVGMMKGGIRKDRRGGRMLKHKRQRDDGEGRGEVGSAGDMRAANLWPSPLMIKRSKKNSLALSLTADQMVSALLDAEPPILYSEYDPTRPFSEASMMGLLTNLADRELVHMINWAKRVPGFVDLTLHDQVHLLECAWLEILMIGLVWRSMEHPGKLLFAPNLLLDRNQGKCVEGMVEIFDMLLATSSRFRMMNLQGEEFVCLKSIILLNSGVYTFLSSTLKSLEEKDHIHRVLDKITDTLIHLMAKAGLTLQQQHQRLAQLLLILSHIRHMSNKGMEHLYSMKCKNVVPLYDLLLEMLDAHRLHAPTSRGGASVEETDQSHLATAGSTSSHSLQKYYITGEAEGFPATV
Kind of assay: MCF-7 ERE-tk-luciferase test procedure, antagonist mode. It counts as cell-based. Particulars: co-dosed with 10 pM 17β-estradiol, MCF-7 cells infected with adenovirus 5-ERE-tk-luciferase, treated 24 h. An excerpt: Estrogen antagonist activity was shown for representative compounds of this invention in a standard pharmacological test procedure using MCF-7 cells transfected with an estrogen receptor. When administered orally, the compounds of this invention act at least partially as prodrugs for the corresponding hydroxylated compounds disclosed in EP 802183. Accordingly, the compounds of this invention are tissue selective estrogens, meaning that in certain tissue containing estrogen receptors, the compounds will act as estrogen agonists, and in other tissue containing estrogen receptors, the compounds will act as antagonists. […]
After treatment the cells were lysed on a shaker for 15 min with 25 uL/well of 1× cell culture lysis reagent (Promega Corporation). The cell lysates (20 uL) were transferred to a 96 well luminometer plate, and luciferase activity was measured in a MicroLumat LB 96 P luminometer (EG and G Bethold) using 100 uL/well of luciferase substrate (Promega Corporation). […] Following the injection of the substrate, luciferase activity was measured for 10 seconds after a 1 second delay. The data were transferred from the luminometer to a Macintosh personal computer and analyzed using the JMP software (SAS institute); this program subtracts the background reading from the luciferase measurement for each well and then determine the mean and standard deviation of each treatment. […]

In turn, `Cc1c(-c2ccc(O)cc2)n(Cc2ccc(OCCN3CCCCC3)cc2)c2ccc(O[C@@H]3O[C@H](C(=O)O)[C@@H](O)[C@H](O)[C@H]3O)cc12` [Compound 29, 1-[4-(2-Piperidin-1-yl-ethoxy)-benzyl]-2-(4-hydroxy-phenyl)-3-methyl-1H-indol-5-ol 5-O-glucuronide triethylammonium salt] returned an IC50 of 230 nM.
Then `Cc1c(-c2ccc(O[C@@H]3O[C@H](C(=O)O)[C@@H](O)[C@H](O)[C@H]3O)cc2)n(Cc2ccc(OCCN3CCCCC3)cc2)c2ccc(O)cc12` [Compound 37, 2-(4-Hydroxy-phenyl)-3-methyl-1-[4-(2-piperidin-1-yl-ethoxy)-benzyl]-1H-indol-5-ol 4-O-Glucuronide Triethyl Ammonium Salt], with 1200 nM.

The values are drawn from patent US6380166B1, “Glucopyranosides conjugates of 2-(4-hydroxy-phenyl)-3-methyl-1-[4-(2-amin-1-yl-ethoxy)-benzyl]-1H-indol-5-ols” (American Home Products Corporation, priority 1999, dated 2002).
